Assays:
[1] = tested on: fruit fly (Drosophila melanogaster); conditions: for FF SYM: % showing intoxicated symptoms at 25 μg/cm2 against fruit fly in dietary tests: 25 μg/cm2, 4 h; for FF 25: % mortality at 25 μg/cm2 against fruit fly in dietary tests: 25 μg/cm2, 48 h
[2] = tested on: beet armyworm (Spodoptera exigua); conditions: 50 μg/cm2, second-instar larvae, 5 days
[3] = tested on: yellow fever mosquito (Aedes aegypti) larvae; experiment: whole plant or invertebrate; format: in vivo; conditions: 72 h, read-out: YFM 26: % control at 26 ppm against yellow fever mosquito in submerge tests
[4] = tested on: corn earworm (Helicoverpa zea); conditions: 50 μg/cm2, second-instar larvae, 5 days
[5] = tested on: beet armyworm (Spodoptera exigua); experiment: Insecticidal test for beet armyworm in injection assays; conditions: 1 h, read-out: BAW SYM: % showing intoxicated symptoms at 10 μg/larva against beet armyworm in injection tests
[6] = tested on: sweet potato whitefly (Bemisia tabaci); experiment: Insecticidal test for sweet potato whitefly, foliar spray on cotton; conditions: for % Control at ppm, against sweet potato whitefly: 0.4-0.78: 0.4-0.78 ppm; for % Control at ppm, against sweet potato whitefly: 0.4-0.78 / % Control at ppm, against sweet potato whitefly: 2-3.13 / % Control at ppm, against sweet potato whitefly: 10-12.5 / % Control at ppm, against sweet potato whitefly: 50: rundown assay; for % Control at ppm, against sweet potato whitefly: 2-3.13: 2-3.13 ppm; for % Control at ppm, against sweet potato whitefly: 10-12.5: 10-12.5 ppm; for % Control at ppm, against sweet potato whitefly: 50: 50 ppm; for pest or weed control at 200 ppm: Bemisia tabaci, in Gossypium hirsutum, foliar, read-out: SPW 200: % control at 200 ppm against sweet potato whitefly in foliar spray tests
[7] = tested on: Colorado potato beetle (Leptinotarsa decemlineata); experiment: Insecticidal test for Colorado potato beetle, foliar spray on tomato; format: in vivo; conditions: for % Control at ppm, against Colorado potato beetle: 3.13: 3.13 ppm; for % Control at ppm, against Colorado potato beetle: 12.5: 12.5 ppm; for CPB 50: % control at 50 ppm against Colorado potato beetle in foliar spray tests: 5 days, Corrected % Control; for CPB 50: % control at 50 ppm against Colorado potato beetle in foliar spray tests / % Control at ppm, against Colorado potato beetle: 50: 50 ppm
Procedure: Insecticidal Test for Colorado Potato Beetle (Leptinotarsa decemlineata).
Tomato seedlings at the growth stage of three or four expanding leaves were used. […] Treated plants were held in the laboratory for approximately 3 h to allow drying before the upper portion (with two or three leaves) of a plant was cut and placed in a 10×2.5-cm petri dish containing approximately 10 mL of solidified 1% agar at the bottom. Five 2nd or 3rd instar larvae were placed on the treated plant tissue, and the petri dishes were covered and held in an incubator at 25° C. At 5 days following treatment, insecticidal activity was evaluated by counting the number of live larvae in each dish.

[8] = tested on: cotton aphid (Aphis gossypii); experiment: Insecticidal test for cotton aphid, foliar spray on squash; conditions: for pest or weed control at 50 ppm / pest or weed control at 200 ppm: Aphis gossypii, foliar, 72 h; for pest or weed control at 50 ppm: read-out: CA 50: % control at 50 ppm against cotton aphid in foliar spray tests; for pest or weed control at 200 ppm: read-out: CA 200: % control at 200 ppm against cotton aphid in foliar spray tests; for % Control at ppm, against cotton aphid: 0.012: 0.012 ppm; for % Control at ppm, against cotton aphid: 0.049: 0.049 ppm; for % Control at ppm, against cotton aphid: 0.195: 0.195 ppm; for % Control at ppm, against cotton aphid: 0.78: 0.78 ppm; for % Control at ppm, against cotton aphid: 3.12: 3.12 ppm
[9] = tested on: green peach aphid (Myzus persicae); experiment: Insecticidal test for green peach aphid, foliar spray on cabbage seedlings; conditions: rundown assay, 3 days; for % Control at ppm, against green peach aphid: 0.012: 0.012 ppm; for % Control at ppm, against green peach aphid: 0.049: 0.049 ppm; for % Control at ppm, against green peach aphid: 0.195: 0.195 ppm; for % Control at ppm, against green peach aphid: 0.78: 0.78 ppm; for % Control at ppm, against green peach aphid: 3.12: 3.12 ppm

| Structure (SMILES) | FF SYM: % showing intoxicated symptoms at 25 μg/cm2 against fruit fly in dietary tests [1] | FF 25: % mortality at 25 μg/cm2 against fruit fly in dietary tests [1] | BAW 50: % mortality at 50 μg/cm2 against beet armyworm in dietary tests [2] | pest or weed control at 26 ppm [3] [%] | CEW 50: % mortality at 50 μg/cm2 against corn earworm in dietary tests [4] | pest or weed control at 0.01 mg [5] [%] | % Control at ppm, against sweet potato whitefly: 0.4-0.78 [6] | % Control at ppm, against sweet potato whitefly: 2-3.13 [6] | % Control at ppm, against sweet potato whitefly: 10-12.5 [6] | % Control at ppm, against sweet potato whitefly: 50 [6] | pest or weed control at 200 ppm [6] [%] | pest or weed control at 50 ppm [8] [%] | pest or weed control at 200 ppm [8] [%] | % Control at ppm, against green peach aphid: 0.049 [9] | % Control at ppm, against green peach aphid: 0.195 [9] | % Control at ppm, against green peach aphid: 0.78 [9] | % Control at ppm, against green peach aphid: 3.12 [9] | % Control at ppm, against cotton aphid: 0.049 ([8]; rundown assay) | % Control at ppm, against cotton aphid: 0.195 ([8]; rundown assay) | % Control at ppm, against cotton aphid: 0.78 ([8]; rundown assay) | further results |
| --- | --- | --- | --- | --- | --- | --- | --- | --- | --- | --- | --- | --- | --- | --- | --- | --- | --- | --- | --- | --- | --- |
| CC(c1ccc(Cl)nc1)S(C)(=O)=NC#N (stereo not drawn) [Compound 8, [1-(6-chloropyridin-3-yl)ethyl](methyl)oxido-λ^4-sulfanylidenecyanamide] | A (90-100) | A (90-100) | G (Inactive) | 90 to 100 | G (Inactive) | 50 to 59 | A (90-100) | A (90-100) | A (90-100) | A (90-100) | 90 to 100 | 90 to 100 | 90 to 100 |  |  |  |  |  |  |  | % Control at ppm, against Colorado potato beetle: 3.13 ([7]; rundown assay): D (60-69); % Control at ppm, against Colorado potato beetle: 12.5 ([7]; rundown assay): A (90-100); CPB 50: % control at 50 ppm against Colorado potato beetle in foliar spray tests [7]: A (90-100); % Control at ppm, against Colorado potato beetle: 50 ([7]; rundown assay): A (90-100) |
| CC(C)(c1ccc(Cl)nc1)S(C)(=O)=NC#N (stereo not drawn) [Compound 9, [1-(6-chloropyridin-3-yl)-1-methylethyl](methyl)oxido-λ^4-sulfanylidenecyanamide] | A (90-100) | C (70-79) | G (Inactive) | 90 to 100 | G (Inactive) | < 50 |  |  |  |  |  | 90 to 100 | 90 to 100 |  |  |  |  |  |  |  |  |
| N#CN=S1(=O)CCCC1Cc1cnc(Cl)s1 (stereo not drawn) [Compound 11, 2-[(2-chloro-1,3-thiazol-5-yl)methyl]-1-oxidotetrahydro-1H-1λ^4-thien-1-ylidenecyanamide] |  | D (60-69) | G (Inactive) | 90 to 100 | G (Inactive) | 60 to 69 |  |  |  |  |  | 90 to 100 | 90 to 100 |  |  |  |  |  |  |  |  |
| CS(=O)(=NC#N)C(Cl)c1ccc(Cl)nc1 (stereo not drawn) [Compound 23] | A (90-100) | A (90-100) | G (Inactive) | 90 to 100 | G (Inactive) | < 50 |  |  |  |  |  | 90 to 100 | 90 to 100 |  |  |  |  |  |  |  |  |
| CS(=O)(=NC#N)C(Br)c1ccc(Cl)nc1 (stereo not drawn) [Compound 24] | F (Less than 50) | A (90-100) | G (Inactive) | 90 to 100 | G (Inactive) | < 50 |  |  |  |  |  | 90 to 100 | 90 to 100 |  |  |  |  |  |  |  |  |
| CCC(c1ccc(Cl)nc1)S(C)(=O)=NC#N (stereo not drawn) [Compound 26] | A (90-100) | A (90-100) | G (Inactive) | 90 to 100 | G (Inactive) | < 50 |  |  |  |  |  | 90 to 100 | 90 to 100 |  |  |  |  |  |  |  |  |
| C[C@H](c1ccc(Cl)nc1)[S@](C)(=O)=NC#N [Compound 28] | A (90-100) | A (90-100) | G (Inactive) | 90 to 100 | G (Inactive) | 60 to 69 | A (90-100) | A (90-100) | A (90-100) | A (90-100) | 90 to 100 | 90 to 100 | 90 to 100 | F (Less than 50) | B (80-89) | A (90-100) | A (90-100) | A (90-100) | A (90-100) | A (90-100) | % Control at ppm, against green peach aphid: 0.012 [9]: F (Less than 50); % Control at ppm, against cotton aphid: 0.012 ([8]; rundown assay): A (90-100); % Control at ppm, against cotton aphid: 3.12 ([8]; rundown assay): A (90-100) |
| CC(c1ccc(Cl)nc1)[S@](C)(=O)=NC#N (stereo partly drawn) [Compound 29] | A (90-100) | A (90-100) | G (Inactive) | 90 to 100 | G (Inactive) | 90 to 100 | A (90-100) | A (90-100) | A (90-100) | A (90-100) | 90 to 100 | 90 to 100 | 90 to 100 | D (60-69) | A (90-100) | A (90-100) | A (90-100) | A (90-100) | A (90-100) | A (90-100) | % Control at ppm, against green peach aphid: 0.012 [9]: F (Less than 50); % Control at ppm, against cotton aphid: 0.012 ([8]; rundown assay): A (90-100); % Control at ppm, against cotton aphid: 3.12 ([8]; rundown assay): A (90-100) |
| O=[N+]([O-])N=[S@@]1(=O)CCCC1Cc1ccc(Cl)nc1 (stereo partly drawn) [Compound 41] |  | F (Less than 50) | G (Inactive) | 90 to 100 | G (Inactive) |  |  |  |  |  | 90 to 100 | 90 to 100 | 90 to 100 | F (Less than 50) | F (Less than 50) | E (50-59) | D (60-69) | C (70-79) | A (90-100) | A (90-100) | % Control at ppm, against green peach aphid: 12.5 ([9]; 12.5 ppm): A (90-100); % Control at ppm, against green peach aphid: 50 ([9]; 50 ppm): A (90-100); % Control at ppm, against Colorado potato beetle: 0.78 ([7]; 0.78 ppm, rundown assay): F (Less than 50); % Control at ppm, against Colorado potato beetle: 3.13 ([7]; rundown assay): F (Less than 50); % Control at ppm, against Colorado potato beetle: 12.5 ([7]; rundown assay): D (60-69); CPB 50: % control at 50 ppm against Colorado potato beetle in foliar spray tests [7]: A (90-100); % Control at ppm, against Colorado potato beetle: 50 ([7]; rundown assay): A (90-100); % Control at ppm, against cotton aphid: 3.12 ([8]; rundown assay): A (90-100); % Control at ppm, against cotton aphid: 12.5 ([8]; 12.5 ppm, rundown assay): A (90-100); % Control at ppm, against cotton aphid: 50 ([8]; 50 ppm, rundown assay): A (90-100) |

Reference: US7795456B2, “Insecticidal N-substituted sulfoximines” (Dow AgroSciences LLC, priority 2004, dated 2010)
